The test system of one assay is primary human monocytes. In words: In vitro inflammation inhibition, LPS-stimulated monocytes. Format: cell-based. As to the method:
For pharmacological inhibition experiments, the monocytes were pre-incubated for 1 hour with one of the inhibitors described in Table 2 before addition of the training stimulus.
In vitro inflammation inhibition: Monocytes were adhered to a flat-bottom cell culture plate for 1 hour and washed with warm PBS to remove any non-adherent cells and cell debris. […] Following the initial 24-hour stimulation, the supernatants were collected and stored at −20° C. until further analysis with ELISA for IL6 and TNF.
Cytokine and lactate measurements: TNF, IL6, and IL1Ra were measured in cell culture supernatants using duoset ELISA kits (R&D systems), according to the manufacturer's instructions. For lactate measurements, a fluorometric assay was used. 30 μl sample, medium control, or known standard was added to a black 96-well plate. Then, 30 μl reaction mix (PBS pH 7.4, horse radish peroxidase (0.2 U/ml), lactate oxidase (2 U/ml), Amplex red (100 μM; Fisher scientific)) was added and the reaction was incubated for 20 minutes in the dark at RT. Immediately thereafter, fluorescence was measured at 530/25 nm and 590/35 nm. Gen5 software (v3.03, BioTek) was used in conjunction with Microsoft Excel to calculate cytokine and lactate concentrations in the original samples.

The next assay has as its system Macrophages. In words: Macrophage surface marker flow cytometry. Format: cell-based, human. The conditions noted are these: data not shown. The text has this: Primary monocyte-derived dendritic cell (moDC) generation: For experiments were moDCs were compared to macrophages (untrained control or IL4-trained), moDCs were differentiated as follows. First, negatively selected monocytes were obtained as described above. […] The cells were differentiated until day 6, with one medium refresh on day 3. On day 6, the non-adherent cells were harvested in addition to the adherent cells (as described above). The moDCs and macrophages were then subjected to analysis by flow cytometry as described below.
Macrophage surface marker flow cytometry: Macrophages were harvested as described above and transferred to a v-bottom 96 well plate for staining. The cells were centrifuged at 1500 rpm, 5 minutes, 4° C. The supernatant was removed, and the cells were washed once with 200 μl PBA (PBS pH 7.4, 1% w/v BSA (Sigma)).
Fc-receptors were blocked by incubation in PBS supplemented with 10% human pooled serum for 15 minutes at 4° C. After washing once more, surface markers and viability were stained for in a volume of 50 μl for 30 minutes at 4° C., using the antibodies and viability dye described in table 3.
Following two washes, the cells were resuspended in 150 μl PEA and measured on a Cytoflex flow cytometer (Eeckman Coulter) or ED FACSVerse system (ED Eiosciences). Compensation was performed using VersaComp compensation beads (Eeckman Coulter) for single antibody stains; a mixture of live and heat-killed cells was used for single stains of the viability dye (as per the manufacturer's recommendations). Data analysis was performed in Flowjo (v10.7.1, ED Eiosciences) Our gating strategy was as follows: first, a time gate was used if necessary. Then, single cell events were selected using subsequent FSC-A/SSC-A and FSC-A/FSC-H gates. Dead cells were removed from the analysis by selecting the viability dye-negative population. Geometric mean fluorescence intensities were calculated as a measure of surface marker expression.

For assay [1], the system named is tolerant monocytes from the LPS-challenged volunteers. In words: Experimental human endotoxemia model, ex vivo tolerance reversal. Format: cell-based. The following applies: ex vivo exposure 24 hours, re-stimulation on day 3. An excerpt: In vivo experimental human endotoxemia model and ex vivo analyses: Eight healthy (as confirmed by medical history, physical examination, and routine laboratory testing) male volunteers provided written informed consent to participate in experimental endotoxemia experiments conducted at the research unit of the intensive care department of the Radboud university medical center. All study procedures were approved by the local ethics committee (CMO Arnhem-Nijmegen, registration numbers NL71293.091.19 and 2019-5730), and were conducted in accordance with the latest version of the declaration of Helsinki.
A continuous endotoxin infusion regimen was employed, as is described in detail elsewhere (van Lier, D., Geven, C., Leijte, G. P. & Pickkers, P. Experimental human endotoxemia as a model of systemic inflammation. Biochimie 159, 99-106, doi:10.1016/j.biochi.2018.06.014 (2019)). […] A 3-lead ECG was recorded continuously throughout the experiment. […] Participants were monitored for 8 hours after the endotoxin loading dose after which they were discharged from the research unit. […]
Cytokine and lactate measurements: TNF, IL6, and IL1Ra were measured in cell culture supernatants using duoset ELISA kits (R&D systems), according to the manufacturer's instructions. […] Immediately thereafter, fluorescence was measured at 530/25 nm and 590/35 nm. […]

Setting [2] is: Percoll-enriched monocytes, LPS 24 hours, IL4 25 ng/mL.

As for IL4: recombinant human interleukin 4, in the assay on primary human monocytes (setting [2]), the “secretion of IL6” value is reported as “potently inhibited”, the “secretion of IL-1Ra” value is “secreted significantly more IL-1Ra compared to controls” and the “secretion of TNF” value was “potently inhibited”. The baseline lactate production result in the assay on primary human monocytes (otherwise unstimulated monocytes vs medium control, data not shown) is given as “slightly, but significantly, lower baseline lactate production”. Moreover, the CD1c expression result in the assay with Macrophages (IL4-trained cells vs untrained cells and moDCs) is on record as “slightly more CD1c than untrained cells, but far less than moDCs”. Also, in the assay with Macrophages (IL4 training, day 6), the CD14 expression entry is listed as “strong downregulation”, the CD80 expression entry is recorded as “marginally increased”, the CD200R expression entry was “significantly enhanced” and the CD206 expression entry is reported as “significantly enhanced”. Moreover, in assay [1], the “production of IL6 upon re-stimulation with LPS” value is on record as “but not IL6” and the “production of TNF upon re-stimulation with LPS” value is reported as “significantly improved”.

Source of the values: patent US20240391978A1, “APOLIPOPROTEIN FUSION PROTEINS FOR CELL-SPECIFIC IMMUNE REGULATION” (BIO-TRIP B.V., priority 2021, published 2024).
